Experimental data from patent US7384758B2, “Bioluminescent protease assay with modified aminoluciferin or derivatives thereof” (Promeaga Corporation, priority 2002, dated 2008).

What was measured:
[1] = test system: thermostable firefly luciferase; assay: luminescent reaction with luciferin or aminoluciferin as luciferase substrate (FIG. 1); type: biochemical
Description: FIG. 1 depicts relative light units (RLU) for luciferin or aminoluciferin as a substrate for a thermostable firefly luciferase in a luminescent reaction.

[2] = biological target: T1, caspase 3 (Homo sapiens, UniProt P42574); assay: caspase titration in CHAPS or Thesit buffer formulations (Example 5); type: biochemical; settings: buffer containing either CHAPS or Thesit, FIG. 12
T1 construct: approximately 10 mU/ng protein with >75% in active conformation; purchased Upstate Biotech 14-264
T1 sequence (P42574 29-175 limits assumed): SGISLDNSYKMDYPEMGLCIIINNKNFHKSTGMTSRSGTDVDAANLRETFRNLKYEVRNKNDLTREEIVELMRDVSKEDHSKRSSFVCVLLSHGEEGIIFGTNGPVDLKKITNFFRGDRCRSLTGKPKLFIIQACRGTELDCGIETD
T1 sequence (P42574 176-277 limits assumed): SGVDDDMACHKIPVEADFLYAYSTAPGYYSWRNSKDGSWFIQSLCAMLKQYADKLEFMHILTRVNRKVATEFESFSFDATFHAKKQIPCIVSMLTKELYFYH
Description: To evaluate different assay component formulations for caspase-3 activity and to compare sensitivities of DEVD-aminoluciferin to DEVD-Rho-110 in those formulations, two stock solutions were prepared. As above, the DEVD-aminoluciferin/luciferase mixture is prepared and allowed to incubate overnight. One stock solution included a 1% solution of CHAPS buffer (Sigma, Catalog No. C-5070) and the other a 1% solution of Thesit (Pragmatics, Inc., Catalog No. S-22#9). The buffer formulations were as follows: 100 μl of HEPES (1 M stock, 50 mM final concentration), 10 μl of CaCl2 (1 M stock, 5 mM final concentration), 30 μl of MgSO4 (1 M stock, 15 mM final concentration), 8 μl of ATP (0.1 M stock, 400 μM final concentration), 8 μl of DEVD-aminoluciferin (10 mM stock, 40 μM final concentration), 38.4 μl of luciferase (5.2 mg/ml stock, 100 μg/ml final concentration) and 20 μl of prionex (10% stock, 0.1% final concentration) were combined in each of 2 tubes. Finally, 200 μl of either CHAPS or Thesit (1% stock, 0.1% final concentration) was added to one of the tubes. This was incubated overnight. […]
To one plate, 50 μl of DEVD-aminoluciferin/luciferase was added to each of the 6 wells containing each dilution (both CHAPS and Thesit treated). […] The plates were read at various times on a luminometer (Dynex) or a fluorimeter (Fluoroskan).

Km ([1]; substrate for thermostable firefly luciferase, FIG. 1): 2 µM
light output as luciferin ([1]; under saturating conditions, relative to luciferin): about 60%
limit of detection (caspase) [2]: ~0.2 μU
Structure (SMILES): Nc1ccc2nc(C3=N[C@@H](C(=O)O)CS3)sc2c1 [aminoluciferin]
